“And” between values parts separate entries of the source, which are not always exact repeats. Identical values can stand only once. Numbers after ± are expanded uncertainties.
Key:
[1] = Liquid, Closed cell (Static) method
[2] = molar heat capacity at constant pressure; settings: 100 kPa, Liquid, Extra sensitive DSC

CCN1CCOCC1 [4-ethylmorpholine]
vapor or sublimation pressure ([1]; 243.11 K): 0.01727 ± 0.00058 kPa | vapor or sublimation pressure ([1]; 243.12 K): 0.01728 ± 0.00058 kPa and 0.01725 ± 0.00058 kPa | vapor or sublimation pressure ([1]; 248.15 K): 0.0276 ± 0.00074 kPa and 0.02761 ± 0.00074 kPa | vapor or sublimation pressure ([1]; 253.15 K): 0.0431 ± 0.00099 kPa and 0.04308 ± 0.00099 kPa | vapor or sublimation pressure ([1]; 253.16 K): 0.04305 ± 0.00098 kPa | vapor or sublimation pressure ([1]; 258.15 K): 0.06592 ± 0.0013 kPa | vapor or sublimation pressure ([1]; 258.16 K): 0.06592 ± 0.0013 kPa and 0.06589 ± 0.0013 kPa | vapor or sublimation pressure ([1]; 263.16 K): 0.09902 ± 0.0019 kPa and 0.09898 ± 0.0019 kPa and 0.09893 ± 0.0019 kPa | vapor or sublimation pressure ([1]; 268.16 K): 0.1459 ± 0.0022 kPa and 0.146 ± 0.0022 kPa | vapor or sublimation pressure ([1]; 273.17 K): 0.2112 ± 0.0027 kPa and 0.2111 ± 0.0027 kPa | vapor or sublimation pressure ([1]; 278.16 K): 0.3025 ± 0.0035 kPa | vapor or sublimation pressure ([1]; 278.17 K): 0.3027 ± 0.0035 kPa and 0.3026 ± 0.0035 kPa | vapor or sublimation pressure ([1]; 283.17 K): 0.4244 ± 0.0046 kPa and 0.4243 ± 0.0046 kPa | vapor or sublimation pressure ([1]; 288.17 K): 0.5882 ± 0.0061 kPa and 0.5883 ± 0.0061 kPa and 0.5881 ± 0.0061 kPa | vapor or sublimation pressure ([1]; 293.16 K): 0.8046 ± 0.008 kPa and 0.8045 ± 0.008 kPa | vapor or sublimation pressure ([1]; 298.17 K): 1.086 ± 0.01 kPa and 1.085 ± 0.01 kPa | molar heat capacity at constant pressure ([2]; 270 K): 198.1 ± 7.7 J/K/mol | molar heat capacity at constant pressure ([2]; 275 K): 199.6 ± 7.7 J/K/mol | molar heat capacity at constant pressure ([2]; 280 K): 201.1 ± 7.8 J/K/mol | molar heat capacity at constant pressure ([2]; 285 K): 202.8 ± 7.9 J/K/mol | molar heat capacity at constant pressure ([2]; 290 K): 204.5 ± 7.9 J/K/mol | molar heat capacity at constant pressure ([2]; 295 K): 206.4 ± 8 J/K/mol | molar heat capacity at constant pressure ([2]; 300 K): 208.2 ± 8.1 J/K/mol | molar heat capacity at constant pressure ([2]; 305 K): 209.9 ± 8.1 J/K/mol | molar heat capacity at constant pressure ([2]; 310 K): 211.6 ± 8.2 J/K/mol | molar heat capacity at constant pressure ([2]; 315 K): 213.4 ± 8.3 J/K/mol | molar heat capacity at constant pressure ([2]; 320 K): 215.5 ± 8.3 J/K/mol | molar heat capacity at constant pressure ([2]; 325 K): 217.7 ± 8.4 J/K/mol | molar heat capacity at constant pressure ([2]; 330 K): 219.9 ± 8.5 J/K/mol | molar heat capacity at constant pressure ([2]; 335 K): 221.9 ± 8.6 J/K/mol | molar heat capacity at constant pressure ([2]; 340 K): 223.8 ± 8.7 J/K/mol | molar heat capacity at constant pressure ([2]; 345 K): 225.9 ± 8.7 J/K/mol | molar heat capacity at constant pressure ([2]; 350 K): 228 ± 8.8 J/K/mol | molar heat capacity at constant pressure ([2]; 355 K): 230.2 ± 8.9 J/K/mol
